Values quoted from earlier work as cited in US20220339295A1, “FULLERENE GALLIUM P[…] METHODS” (Exothule Inc., priority 2020, published 2022).

What was measured:
transferrin = transferrin (Homo sapiens, UniProt P02787); settings: relative to Fe3+
transferrin, sequence (P02787 20-698, species assumed): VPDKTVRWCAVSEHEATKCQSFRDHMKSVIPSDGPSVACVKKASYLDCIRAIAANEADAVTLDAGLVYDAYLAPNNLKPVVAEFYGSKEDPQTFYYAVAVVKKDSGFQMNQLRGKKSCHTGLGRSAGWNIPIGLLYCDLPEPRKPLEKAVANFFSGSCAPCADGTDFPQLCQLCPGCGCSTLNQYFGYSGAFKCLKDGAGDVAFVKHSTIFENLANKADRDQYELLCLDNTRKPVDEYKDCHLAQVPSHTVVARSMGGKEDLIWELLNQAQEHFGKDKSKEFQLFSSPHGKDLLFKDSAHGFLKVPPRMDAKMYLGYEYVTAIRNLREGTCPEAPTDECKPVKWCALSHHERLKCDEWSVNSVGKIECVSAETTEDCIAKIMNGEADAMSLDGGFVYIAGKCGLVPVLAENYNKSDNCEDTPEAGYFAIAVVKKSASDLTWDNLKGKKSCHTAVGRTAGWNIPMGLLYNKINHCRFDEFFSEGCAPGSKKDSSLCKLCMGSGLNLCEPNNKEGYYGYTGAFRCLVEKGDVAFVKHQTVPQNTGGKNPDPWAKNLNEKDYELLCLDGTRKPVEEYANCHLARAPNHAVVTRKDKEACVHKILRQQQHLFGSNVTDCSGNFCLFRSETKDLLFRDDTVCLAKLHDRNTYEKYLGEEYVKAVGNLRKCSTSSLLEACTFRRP

SMILES: [Ga] [gallium]
- binding in transferrin, times less effectively than Fe3+ (transferrin): 300 times
- gallium excreted in urine (after 24 hours): 69%
- gallium excreted (in 48 hours): 91%
